These results are taken from patent publication US8349297B2, “Topical formulations” (Medpharm Limited, priority 2005, dated 2013).

The nature of data set [1]: Phase diagram construction with visual solubility assessment. On the procedure: Formulations were prepared by the sequential weighing of the drug followed by the remaining excipients into a 10 mL PET glass coated canister. A magnetic stirrer bar was added and the formulations were crimped with a 100 μL valve. The formulations were allowed to shake for approximately 16 h at room temperature prior to the addition of HFA, and then shaken for a further 8 h prior to visual solubility assessment.

A short description of data set [2]: Solubility studies in PET canisters (clarity observed, ternary phase plot). It counts as physicochemical. On the procedure:
Solubility studies were conducted in clear, PET canisters. Stir bars were added to the canister and the canister was tared on an analytical balance. […] Lids were placed on the canisters and crimped. The solutions were left to stir overnight. […] All percentages are based on weight/weight calculations.

A short description of data set [3]: Stability of BMV in the skin permeation system. Particulars: at both 4° C. and 37° C. It counts as physicochemical. On the procedure: Stratum corneum was isolated from a frozen human skin sample using standard protocol. The prepared skin was mounted on a filter support and placed on the receiver section of an upright Franz cell. The donor compartment was then fixed on top of the receiver compartment and secured using Parafilm. A magnetic flea and thermostatically regulated receiver fluid (90:10 Acetate Buffer pH=4.5:EtOH) were added to each Franz cell. These cells were placed in a bath at 37° C. and allowed to equilibrate and after a few hours a blank sample was taken from each cell. The integrity of each cell was determined via inversion and an appropriate amount of formulation was applied to the donor chamber of the Franz cell. […] Samples were held at room temperature until HPLC analysis.

Consider `O=C(O)c1ccccc1O` [salicylic acid], for which, in data set [1] (83% HFA, ethanol level varied, co-povidone S-630), the “drug level at which a saturated system could be formed” value came out at 2%.

On to `CCCCC(=O)O[C@]1(C(=O)CO)[C@@H](C)C[C@H]2[C@@H]3CCC4=CC(=O)C=C[C@]4(C)[C@@]3(F)[C@@H](O)C[C@@]21C` [BMV, betamethasone valerate], for which, in data set [2], the “PVP level at which the drug becomes insoluble” value is on record as “around 3 % PVP” and the maximum solubility is 1-1.2%. Besides, the “time for which BMV was shown to be stable in the system” value in data set [3] is “up to 72 h”.

For the molecule `O=C(OOC(=O)c1ccccc1)c1ccccc1` [BPO, Benzoyl peroxide], the “drug level at which a saturated system could be formed” value in data set [1] (10% ethanol, PVP K90) is reported as 1%.
